Measured values taken from PMC7676998 (Journal of medicinal chemistry, 2019).
Several values for one entry are separate records, joined by “and”; a condition that tells them apart may be missing. Equal values may be shown once.

Key:
[1] = molecular target: mu opioid receptor (MOP) (Homo sapiens, UniProt P35372); type: binding
[2] = tested on: MOP; details: read-out: EC50 at MOP; other study ref 17; cited from earlier work
[3] = molecular target: DOP (Homo sapiens, UniProt P41143); type: cell-based
[4] = molecular target: T1, adrenergic α1A receptor (Homo sapiens, UniProt P35348); assay: Radioligand binding, adrenergic α1A
T1 sequence (P35348 1-466): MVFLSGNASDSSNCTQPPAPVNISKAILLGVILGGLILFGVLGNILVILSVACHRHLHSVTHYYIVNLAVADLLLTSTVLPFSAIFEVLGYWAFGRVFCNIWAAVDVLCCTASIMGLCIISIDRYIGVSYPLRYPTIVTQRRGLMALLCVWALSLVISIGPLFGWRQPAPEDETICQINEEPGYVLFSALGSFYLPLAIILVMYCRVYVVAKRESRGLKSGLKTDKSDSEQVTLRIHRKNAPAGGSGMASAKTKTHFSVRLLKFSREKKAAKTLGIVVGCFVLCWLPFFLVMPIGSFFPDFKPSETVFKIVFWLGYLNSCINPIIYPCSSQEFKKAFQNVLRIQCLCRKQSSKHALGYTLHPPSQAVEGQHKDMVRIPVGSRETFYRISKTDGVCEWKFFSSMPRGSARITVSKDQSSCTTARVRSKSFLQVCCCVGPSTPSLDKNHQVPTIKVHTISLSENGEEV

[5] = molecular target: MOP (Homo sapiens, UniProt P35372); type: cell-based
[6] = molecular target: T2, adrenergic α2A receptor (Homo sapiens, UniProt P08913); assay: Radioligand binding, adrenergic α2A
T2 sequence (P08913 1-465): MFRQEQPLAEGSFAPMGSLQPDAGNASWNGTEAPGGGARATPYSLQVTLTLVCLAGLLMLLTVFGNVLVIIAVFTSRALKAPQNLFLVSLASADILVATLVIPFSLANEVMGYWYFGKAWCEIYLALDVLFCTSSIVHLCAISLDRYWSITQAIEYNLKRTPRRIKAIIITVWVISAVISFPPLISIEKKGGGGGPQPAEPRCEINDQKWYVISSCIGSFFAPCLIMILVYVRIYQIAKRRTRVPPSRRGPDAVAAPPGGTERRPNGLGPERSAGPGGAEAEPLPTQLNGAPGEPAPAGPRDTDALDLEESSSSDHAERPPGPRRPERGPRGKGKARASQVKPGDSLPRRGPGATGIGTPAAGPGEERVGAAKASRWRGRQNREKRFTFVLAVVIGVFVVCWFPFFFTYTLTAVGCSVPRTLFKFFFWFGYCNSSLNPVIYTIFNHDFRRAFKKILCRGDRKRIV

[7] = tested on: Sprague-Dawley rats; details: rat, in vivo, iv, 0.1 mg/kg
[8] = molecular target: KOP (Homo sapiens, UniProt P41145); assay: cell-based; type: cell-based
[9] = molecular target: T3, adrenergic α1D receptor (Homo sapiens, UniProt P25100); assay: Radioligand binding, adrenergic α1D
T3 sequence (P25100 1-572): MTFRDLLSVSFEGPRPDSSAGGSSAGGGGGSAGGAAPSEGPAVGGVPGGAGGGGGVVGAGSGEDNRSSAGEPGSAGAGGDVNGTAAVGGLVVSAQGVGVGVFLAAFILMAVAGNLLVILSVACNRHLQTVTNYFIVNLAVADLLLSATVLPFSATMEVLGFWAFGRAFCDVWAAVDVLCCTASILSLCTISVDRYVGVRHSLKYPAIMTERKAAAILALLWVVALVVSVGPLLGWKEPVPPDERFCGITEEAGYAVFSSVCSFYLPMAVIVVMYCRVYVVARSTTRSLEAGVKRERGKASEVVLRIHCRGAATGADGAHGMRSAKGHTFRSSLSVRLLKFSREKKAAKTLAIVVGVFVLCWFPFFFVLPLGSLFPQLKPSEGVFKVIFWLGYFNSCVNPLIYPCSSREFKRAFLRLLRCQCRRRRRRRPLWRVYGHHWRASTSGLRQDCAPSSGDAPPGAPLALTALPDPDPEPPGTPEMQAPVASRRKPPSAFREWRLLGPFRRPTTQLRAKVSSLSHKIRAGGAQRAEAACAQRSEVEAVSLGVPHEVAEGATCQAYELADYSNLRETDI

[10] = molecular target: nociceptin NOP (ORL1) (Homo sapiens, UniProt P41146); assay: Radioligand binding, nociceptin receptor
[11] = molecular target: T4, adrenergic α1B receptor (Homo sapiens, UniProt P35368); assay: Radioligand binding, adrenergic α1B
T4 sequence (P35368 1-520): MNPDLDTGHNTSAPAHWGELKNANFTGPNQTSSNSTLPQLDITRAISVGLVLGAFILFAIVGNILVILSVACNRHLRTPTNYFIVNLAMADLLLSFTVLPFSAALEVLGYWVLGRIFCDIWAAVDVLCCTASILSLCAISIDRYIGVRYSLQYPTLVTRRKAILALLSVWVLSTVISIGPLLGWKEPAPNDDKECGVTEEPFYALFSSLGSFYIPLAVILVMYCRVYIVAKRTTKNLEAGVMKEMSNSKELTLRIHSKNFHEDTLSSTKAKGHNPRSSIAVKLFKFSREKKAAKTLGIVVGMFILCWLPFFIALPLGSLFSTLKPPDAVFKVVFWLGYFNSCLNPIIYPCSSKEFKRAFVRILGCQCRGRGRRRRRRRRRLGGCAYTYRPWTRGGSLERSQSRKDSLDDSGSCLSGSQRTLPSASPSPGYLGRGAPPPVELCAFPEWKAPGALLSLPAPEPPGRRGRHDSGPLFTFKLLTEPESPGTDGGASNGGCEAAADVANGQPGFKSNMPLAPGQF

Sequence of nociceptin NOP (ORL1) (P41146 whole entry): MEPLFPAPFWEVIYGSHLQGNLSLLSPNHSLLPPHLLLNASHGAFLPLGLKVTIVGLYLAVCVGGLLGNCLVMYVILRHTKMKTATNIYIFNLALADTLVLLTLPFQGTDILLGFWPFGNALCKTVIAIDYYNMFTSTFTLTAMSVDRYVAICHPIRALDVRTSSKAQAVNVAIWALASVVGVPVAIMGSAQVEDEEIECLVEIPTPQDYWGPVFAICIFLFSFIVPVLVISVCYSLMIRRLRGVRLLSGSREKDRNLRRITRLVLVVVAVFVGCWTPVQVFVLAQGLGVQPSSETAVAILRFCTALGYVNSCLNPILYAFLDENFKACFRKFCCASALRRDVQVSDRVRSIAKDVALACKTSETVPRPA
Sequence of KOP (P41145 whole entry): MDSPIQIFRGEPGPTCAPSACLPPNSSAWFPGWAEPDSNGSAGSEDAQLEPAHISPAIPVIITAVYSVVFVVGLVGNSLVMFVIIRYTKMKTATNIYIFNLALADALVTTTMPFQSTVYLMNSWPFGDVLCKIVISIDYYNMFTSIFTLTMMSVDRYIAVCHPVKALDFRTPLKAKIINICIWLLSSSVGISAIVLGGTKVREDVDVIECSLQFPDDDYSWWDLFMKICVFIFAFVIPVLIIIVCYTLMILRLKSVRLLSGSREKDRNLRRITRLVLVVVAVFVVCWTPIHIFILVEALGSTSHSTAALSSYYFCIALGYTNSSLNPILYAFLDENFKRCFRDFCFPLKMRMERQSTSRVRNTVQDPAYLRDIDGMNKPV
Sequence of mu opioid receptor (MOP) (P35372 whole entry): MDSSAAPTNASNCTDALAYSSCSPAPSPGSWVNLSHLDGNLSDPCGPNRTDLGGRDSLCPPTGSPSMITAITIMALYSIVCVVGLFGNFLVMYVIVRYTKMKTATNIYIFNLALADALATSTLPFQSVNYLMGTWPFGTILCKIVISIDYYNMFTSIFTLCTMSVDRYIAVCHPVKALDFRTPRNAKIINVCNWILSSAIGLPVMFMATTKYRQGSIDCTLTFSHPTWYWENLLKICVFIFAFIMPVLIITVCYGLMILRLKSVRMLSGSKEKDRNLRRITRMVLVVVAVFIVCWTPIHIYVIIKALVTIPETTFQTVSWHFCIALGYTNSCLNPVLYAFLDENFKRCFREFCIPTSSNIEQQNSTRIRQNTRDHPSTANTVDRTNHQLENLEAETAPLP
Sequence of DOP (P41143 whole entry): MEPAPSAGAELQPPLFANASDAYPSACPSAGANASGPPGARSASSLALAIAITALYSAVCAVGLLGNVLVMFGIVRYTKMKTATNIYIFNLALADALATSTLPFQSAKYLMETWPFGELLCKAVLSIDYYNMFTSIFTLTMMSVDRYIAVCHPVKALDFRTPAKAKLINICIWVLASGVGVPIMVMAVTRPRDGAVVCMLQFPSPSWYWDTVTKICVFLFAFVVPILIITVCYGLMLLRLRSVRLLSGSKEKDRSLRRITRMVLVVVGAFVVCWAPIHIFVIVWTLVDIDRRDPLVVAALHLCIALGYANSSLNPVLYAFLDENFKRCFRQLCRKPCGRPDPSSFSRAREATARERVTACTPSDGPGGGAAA
Sequence of MOP (Homo sapiens, UniProt P35372) (P35372 whole entry): as the sequence (P35372 whole entry) above

SMILES: CC[C@@H]1CN2CC[C@@]3(O)C(=Nc4cccc(OC)c43)[C@@H]2C[C@@H]1/C(=C\OC)C(=O)OC [7-hydroxymitragynine]
- percent displacement of bound radioligand, opioid μ [1]: 81.8% and 100.7%
- EC50 [2]: 53 ± 4 nM
- functional effect at DOP [3]: competitive antagonist
- percent displacement of bound radioligand, adrenergic α1A ([4]; 100 nM test compound): 10.1%
- percent displacement of bound radioligand, adrenergic α1A ([4]; 10,000 nM test compound): 3.5%
- functional effect at MOP [5]: full agonist
- percent displacement of bound radioligand, adrenergic a2A ([6]; 100 nM test compound): −6.7%
- percent displacement of bound radioligand, adrenergic a2A ([6]; 10,000 nM test compound): −5.4%
- effect of naltrexone on antinociception [7]: reversed
- Kb [8]: 115 nM
- functional effect at KOP [8]: competitive antagonist
- percent displacement of bound radioligand, adrenergic α1D ([9]; 100 nM test compound): −1.9%
- percent displacement of bound radioligand, adrenergic α1D ([9]; 10,000 nM test compound): 13.5%
- percent displacement of bound radioligand, nociceptin NOP (ORL1) ([10]; 100 nM test compound): −1.6%
- percent displacement of bound radioligand, nociceptin NOP (ORL1) ([10]; 10,000 nM test compound): 3.4%
- percent displacement of bound radioligand, adrenergic α1B ([11]; 100 nM test compound): 5.9%
- percent displacement of bound radioligand, adrenergic α1B ([11]; 10,000 nM test compound): −4.8%
